Source: patent US20140221225A1, “METHOD FOR OBTAINING A MULTICELLULAR SPHEROID” (Universiteit Leiden, priority 2011, published 2014)
Entries after “also recorded” stand apart in the source; their conditions may differ.

Legend:
[1] = tested on: 4T1 cells; experiment: Proof-of-principle drug screen on automatically injected 4T1 multicellular spheroids in collagen gel, 96 well plate; format: cell-based, mouse; conditions: for Feret's Diameter (longest distance between any two points along the selection boundary, maximum caliper), averages / Circularity (4π*area/perimeter^2, 1 = perfect circle), averages / Invasion area (area day 4/area day 0), averages: 1:1000 dilution (10 μM); for Feret's Diameter (longest distance between any two points along the selection boundary, maximum caliper), averages / Circularity (4π*area/perimeter^2, 1 = perfect circle), averages: automated analysis of fluorescent actin staining at day 4; for Feret's Diameter (longest distance between any two points along the selection boundary, maximum caliper), averages: Figure 7B, ctrl 0.67, unit assumed; for Circularity (4π*area/perimeter^2, 1 = perfect circle), averages: Figure 7C, ctrl 0.15; for Invasion area (area day 4/area day 0), averages: manual from DIC images at day 0 and day 4, Figure 7A, ctrl 25.88; for Cell migration from 4T1 spheroids: visual inspection / actin images after 4 days, 4, 10, 20 μM
Procedure: (§1) Cell suspensions derived from trypsin-detached adherent cultures or from collagenase-treated biopsies were filtered to remove clumps, centrifuged at 1000 rpm for 5 minutes, and washed twice with PBS. ˜7×10^6 cells were re-suspended in 30 μl PBS containing 2% polyvinylpyrrolidone (PVP; Sigma-Aldrich). The PVP/cell suspension was loaded into a beveled pulled glass needle (Eppendorf CustomTip Type III, oD [μm] 60, Front surface 40, Flexibility: rigid).
A glass-bottom 96 well plate (Greiner) containing 60 μl solidified collagen gel per well was placed in a motorized stage (MTmot 200×100 MR, Märzhäuser) connected to a controller (Tango, Märzhäuser). A motorized micro-manipulator (Injectman II, Eppendorf) was positioned above the stage and connected to a pump (Femtojet Express, Eppendorf) featuring an external compressor (lubricated compressor, model 3-4, JUN-AIR). A firewire camera (DFK41BF02.H, The Imaging Source) equipped with an 8× macro lens (MR8/O, The Imaging Source) was placed beneath the stage for calibration and imaging. All components were connected to the controlling computer (Ubuntu AMD64). A multi-threaded control program was written in Python using PySerial and wxPython. Coriander software (http://damien.douxchamps.net/ieee1394/coriander) was used for imaging.
After the program was calibrated for the 96 well plate the camera height was adjusted to focus on the bottom of the 96 well plate. The plate was then removed for needle calibration: the injection needle was fixed in the Injectman and moved, using the Injectman controller, into the center of the image. The injection height was set to 200 µm above the bottom of the (virtual) plate. After the needle was moved up, the plate was placed back in position and the upper left well was used for multiple test injections to adjust pump pressure and injection time for optimization of the droplet size (300 µm diameter) using video inspection. Subsequently, using a pre-defined macro defining x-y coordinates and number of injections per well, all wells were injected using the same pressure and injection time.
Differential interference contrast (DIC) images were captured using a charged coupled device (CCD) camera with NIS Image Pro software at 10× dry objective. Quantification of spheroid invasion area was analyzed from DIC images using ImageJ. […] One-way ANOVA was performed to test the significance of the data (p<0.05). The data are presented and plotted as average and standard error of the mean; tables are available in the supplement.
For automated imaging, wells containing gel-embedded spheroids were treated with a fixation and staining cocktail containing 3.7% formaldehyde, 0.2% Triton X-100 (Sigma) and 0.1 μM rhodamine phalloidin (Sigma) for 3 hrs. Wells were washed extensively with PBS and plates were imaged on a Becton Dickinson Pathway 855 using a 4× lens. A montage of 12 frames was made for each Z plane, with a total of 24 Z planes at an interval of 50 μm. Image stacks were converted into 2D maximum fluorescence intensity projections using ImagePro 7.0. MS were then digitally segmented using ImageJ to identify the outline of individual spheroids and multiple parameters were measured, including spheroid Feret's diameter, roundness, and number of spheroids scored in each well.
LY-294002 (phosphatidylinositol 3-kinase), JSI-124-cucurbitacin (STAT3/Jak2), and NSC23766 (Rac1) were purchased from Merck/CalBiochem. PP2 (Src) and ML-7 (MLC kinase) were purchased from ENZO. Y-27632 (Rock) and SB-431542 (TGFb) were purchased from BioMol Tocris. AG1478 (EGFR) was purchased from BioMol and AG-82 (general protein tyrosine kinases) was purchased from Calbiochem. Cell migration was analyzed in the absence and presence of inhibitors for 4 days.
A proof of principle drug screen was performed to test the applicability of this procedure to automated high-throughput drug screening assays (HTS). […]

[2] = tested on: Chondrosarcoma; experiment: Inhibitor treatment of spheroids from fresh human chondrosarcoma biopsy in collagen gel; format: cell-based; conditions: lowest collagen concentration 1.0 mg/ml; bright-field images after 6 days; treatment from 1 day post-injection
Source text: (§2) FIG. 9: Spheroids obtained from two fresh human biopsies. […] The lowest concentration, row G, triggers the largest migration in Chondrosarcoma as well (G5) while the type of migration remains the same between the row F and row G (see F4, G5). […] Scale=100 μm.
(§3) Human biopsy material was obtained from surplus material from patients that were surgically treated for chondrosarcoma or osteosarcoma. Tumor cell suspensions were derived from biopsies by overnight collagenase treatment at room temperature.
as §1
(§4) Next, cell suspensions were derived from freshly isolated human biopsies of osteosarcoma and chondrosarcoma and injected in gels containing three different collagen concentrations. MS readily formed from these human biopsies and survival and migration could be studied for up to 1 week with the two tumor types showing distinct migratory behavior (FIG. 9). […] MS were treated with the range of compounds described above starting 1 day post-injection. […] Thus, the automated MS injection methodology has the potential to be used for large scale screening for the drug sensitivity spectrum of tumor cells freshly isolated from individual patients.

[3] = tested on: Osteosarcoma; experiment: Inhibitor treatment of spheroids from fresh human osteosarcoma biopsy in collagen gel; format: cell-based; conditions: lowest collagen concentration 1.0 mg/ml; bright-field images after 6 days; treatment from 1 day post-injection
Source text: as §2, §3, §1, §4

Row | SMILES | Feret's Diameter (longest distance between any two points along the selection boundary, maximum caliper), averages [1] [mm] | Circularity (4π*area/perimeter^2, 1 = perfect circle), averages [1] | Invasion area (area day 4/area day 0), averages [1] | Migration of Chondrosarcoma spheroids [2] | Cell survival in 4T1 spheroids ([1]; rhodamine phalloidin actin fluorescence, 4 days treatment) | Cell migration from 4T1 spheroids [1] | Migration of Osteosarcoma spheroids [3]
1 | O=c1cc(N2CCOCC2)oc2c(-c3ccccc3)cccc12 [LY-294002] | 0.38 | 0.26 | 14.91 |  |  |  | 
2 | O=S(=O)(c1cccc2c(I)cccc12)N1CCCNCC1 [ML-7] |  |  | 1.09 | block migration completely; also recorded: effectively inhibited migration | did not survive the treatment; also recorded: affected cell survival | Effects on cell migration could be clearly observed | block migration; also recorded: effectively inhibited migration
3 | CC(C)(C)n1nc(-c2ccc(Cl)cc2)c2c(N)ncnc21 [PP2] | 0.55 | 0.19 | 22.48 | reduces migration; also recorded: effectively inhibited migration |  |  | block migration; also recorded: effectively inhibited migration
4 | CC(C)(O)/C=C/C(=O)[C@](C)(O)[C@H]1[C@H](O)C[C@@]2(C)[C@@H]3CC=C4[C@@H](C=C(O)C(=O)C4(C)C)[C@]3(C)C(=O)C[C@]12C [JSI-124] | 0.23 | 0.78 | 1.01 | block migration completely; also recorded: effectively inhibited migration |  | Effects on cell migration could be clearly observed; also recorded: blocked migration, but left the MS intact | block migration; also recorded: effectively inhibited migration
5 | CCN(CC)CCCC(C)Nc1nc(C)cc(Nc2ccc3nc(C)cc(N)c3c2)n1 (centres unmarked) [NSC23766] | 0.37 | 0.29 | 17.51 |  |  |  | 
6 | NC(=O)c1ccc(-c2nc(-c3ccc4c(c3)OCO4)c(-c3ccccn3)[nH]2)cc1 [SB-431542] | 0.46 | 0.22 | 16 |  |  |  | 
7 | C[C@@H](N)[C@H]1CC[C@H](C(=O)Nc2ccncc2)CC1 [Y-27632] | 0.41 | 0.35 | 16.86 | stimulates migration |  |  | stimulates migration
8 | N#CC(C#N)=Cc1cc(O)c(O)c(O)c1 [AG-82] | 0.46 | 0.24 | 20.96 |  |  |  | 
9 | COc1cc2ncnc(Nc3cccc(Cl)c3)c2cc1OC [AG1478] | 0.56 | 0.19 | 25.75 | block migration completely; also recorded: effectively inhibited migration |  |  | block migration; also recorded: effectively inhibited migration
